Structures are written as SMILES. pIC50: −log10 of the molar value. Counter-ions that a name gives are not always drawn.

This experiment deals with T1, Full length human recombinant PIKFYVE (Homo sapiens, UniProt Q9Y2I7).
T1 construct: Full length human recombinant PIKFYVE; purchased Carna Biosciences (Kobe, Japan); host or cells: baculovirus expression system
T1 sequence (Q9Y2I7 whole entry): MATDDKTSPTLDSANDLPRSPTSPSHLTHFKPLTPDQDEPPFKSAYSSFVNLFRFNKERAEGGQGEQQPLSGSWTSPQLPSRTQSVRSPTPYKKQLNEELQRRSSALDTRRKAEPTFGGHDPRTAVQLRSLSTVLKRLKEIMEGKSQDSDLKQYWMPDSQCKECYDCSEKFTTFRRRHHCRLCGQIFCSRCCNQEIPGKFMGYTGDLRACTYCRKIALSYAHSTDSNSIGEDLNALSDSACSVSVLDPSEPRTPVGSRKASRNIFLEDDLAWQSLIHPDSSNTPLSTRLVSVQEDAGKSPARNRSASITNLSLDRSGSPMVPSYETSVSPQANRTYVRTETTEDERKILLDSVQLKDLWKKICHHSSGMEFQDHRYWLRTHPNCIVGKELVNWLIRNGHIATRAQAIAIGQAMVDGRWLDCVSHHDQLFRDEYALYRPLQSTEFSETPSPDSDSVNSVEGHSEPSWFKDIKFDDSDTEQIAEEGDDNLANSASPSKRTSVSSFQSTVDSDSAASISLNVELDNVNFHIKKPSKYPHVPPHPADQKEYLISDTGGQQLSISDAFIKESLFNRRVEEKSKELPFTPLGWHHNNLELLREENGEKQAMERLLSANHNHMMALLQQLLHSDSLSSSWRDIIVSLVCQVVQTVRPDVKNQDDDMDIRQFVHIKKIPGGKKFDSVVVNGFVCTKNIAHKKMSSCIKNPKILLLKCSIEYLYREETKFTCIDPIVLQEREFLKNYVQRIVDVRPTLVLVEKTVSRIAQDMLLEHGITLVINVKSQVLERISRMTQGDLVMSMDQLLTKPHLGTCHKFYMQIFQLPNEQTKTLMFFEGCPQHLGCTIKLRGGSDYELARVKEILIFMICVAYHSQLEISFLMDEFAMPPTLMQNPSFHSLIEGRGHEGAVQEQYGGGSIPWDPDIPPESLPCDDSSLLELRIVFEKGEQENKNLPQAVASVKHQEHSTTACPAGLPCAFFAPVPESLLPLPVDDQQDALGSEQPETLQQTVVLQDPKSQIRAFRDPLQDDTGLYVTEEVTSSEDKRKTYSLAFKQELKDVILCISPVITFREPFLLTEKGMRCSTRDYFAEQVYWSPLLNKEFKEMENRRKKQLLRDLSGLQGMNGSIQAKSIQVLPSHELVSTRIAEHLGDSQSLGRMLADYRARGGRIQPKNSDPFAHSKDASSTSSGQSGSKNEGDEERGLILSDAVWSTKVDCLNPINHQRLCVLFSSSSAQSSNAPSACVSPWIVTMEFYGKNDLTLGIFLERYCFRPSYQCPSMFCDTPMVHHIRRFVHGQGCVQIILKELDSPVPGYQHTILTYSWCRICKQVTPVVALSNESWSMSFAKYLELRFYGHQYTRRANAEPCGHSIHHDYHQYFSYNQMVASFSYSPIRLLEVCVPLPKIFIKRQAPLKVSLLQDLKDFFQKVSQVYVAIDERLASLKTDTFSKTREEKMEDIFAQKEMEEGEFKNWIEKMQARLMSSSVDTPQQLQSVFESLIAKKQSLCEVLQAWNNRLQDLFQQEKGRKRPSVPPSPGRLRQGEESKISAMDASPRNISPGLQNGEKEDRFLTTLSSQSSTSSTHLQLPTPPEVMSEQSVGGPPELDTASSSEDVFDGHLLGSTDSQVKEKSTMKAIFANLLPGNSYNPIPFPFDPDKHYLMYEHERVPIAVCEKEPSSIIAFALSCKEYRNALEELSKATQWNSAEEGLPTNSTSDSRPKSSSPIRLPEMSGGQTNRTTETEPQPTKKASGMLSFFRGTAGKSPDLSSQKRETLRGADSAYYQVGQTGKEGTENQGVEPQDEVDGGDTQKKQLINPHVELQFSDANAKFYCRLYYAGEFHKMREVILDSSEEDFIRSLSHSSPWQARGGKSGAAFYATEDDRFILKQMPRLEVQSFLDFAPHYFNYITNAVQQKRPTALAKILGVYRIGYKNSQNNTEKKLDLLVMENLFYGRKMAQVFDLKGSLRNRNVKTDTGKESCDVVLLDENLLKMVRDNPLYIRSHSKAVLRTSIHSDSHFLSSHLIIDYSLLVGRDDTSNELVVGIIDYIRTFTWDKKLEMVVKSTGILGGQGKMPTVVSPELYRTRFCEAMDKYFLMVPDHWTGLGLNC
Nature of the experiment: Inhibition of PIKfyve (microfluidic electrophoresis kinase assay, PI3P/PS substrate). It counts as biochemical. The conditions noted are these: 12 concentrations. The method, then: Full length human recombinant PIKFYVE expressed in baculovirus expression system as N-terminal GST-fusion protein (265 kDa) was obtained from Carna Biosciences (Kobe, Japan). The kinase substrate was prepared by mixing and sonicating fluorescently-labeled phosphatidylinositol 3-phosphate (PI3P) with phospho-L-serine (PS) at a 1:10 ratio in 50 mM HEPES buffer pH 7.5.
The kinase reactions were assembled in 384-well plates (Greiner) in a total volume of […] as follows. Kinase protein was pre-diluted in an assay buffer comprising 25 mM HEPES, pH 7.5, 1 mM DTT, 2.5 mM MgCl2, and 2.5 mM MnCl2, and 0.005% Triton X-100, and dispensed into a 384-well plate (10 μL per well). Test compounds were serially pre-diluted in DMSO and added to the protein samples by acoustic dispensing (Labcyte Echo). The concentration of DMSO was equalized to 1% in all samples. All test compounds were tested at 12 concentrations. Apilimod was used as a reference compound and was tested in identical manner in each assay plate. Control samples (0%-inhibition, in the absence of inhibitor, DMSO only) and 100%-inhibition (in the absence of enzyme) were assembled in replicates of four and were used to calculate %-inhibition in the presence of compounds. The reactions were initiated by addition of 10 μL of 2×PI3P/PS substrate supplemented with ATP. The final concentration of enzyme was 2 nM, the final concentration of ATP was […], and the final concentration of PI3P/PS substrate was 1 μM (PI3P). The kinase reactions were allowed to proceed for 3 h at room temperature. Following incubation, the reactions were quenched by addition of […] of termination buffer (100 mM HEPES, pH 7.5, 0.01% Triton X-100, 20 mM EDTA). Terminated plates were analyzed on a microfluidic electrophoresis instrument (Caliper LabChip® 3000, Caliper Life Sciences/Perkin Elmer). The change in the relative fluorescence intensity of the PI(3)P substrate and PI(3,5)P product peaks was measured. The activity in each test sample was determined as the product to sum ratio (PSR): P/(S+P), where P is the peak height of the product, and S is the peak height of the substrate. Percent inhibition (Pinh) was determined using the following equation:
Pinh=(PSR0% inh−PSRcompound)/(PSR0% inh−PSR100% inh)*100
in which PSRcompound is the product/sum ratio in the presence of compound, PSR0% inh is the product/sum ratio in the absence of compound, and the PSR100% inh is the product/sum ratio in the absence of the enzyme.
Broadly, the pIC50 is the negative decadic logarithm of the IC50, by convention in mol/L. With `c1ccc(-c2ccn(-c3nc(N4CCOCC4)c4oc(-c5cn[nH]c5)cc4n3)n2)cc1` [Compound 209, 4-morpholino-2-(3-phenylpyrazol-1-yl)-6-(1H-pyrazol-4-yl)furo[3,2-d]pyrimidine], the negative logarithm of the IC50 (pIC50) is 8.01. As for `CN1CCC(c2cc3nc(Nc4cc(-c5ccncc5)n[nH]4)nc(N4CCOCC4)c3o2)C1` (centres unmarked) [Compound 40], the pIC50 is 5.59. As for `NC(=O)c1cc2nc(Nc3cc(-c4ccccc4)n[nH]3)nc(N3CCOCC3)c2o1` [Compound 52, 4-morpholino-2-((3-phenyl-1H-pyrazol-5-yl)amino)furo[3,2-d]pyrimidine-6-carboxamide hydrochloride], the figure is 7.33. As for `CN1CCCC(NC(=O)c2cc3nc(-n4cc(-c5ccccc5)cn4)nc(N4CCOCC4)c3o2)C1` (centres unmarked) [Compound 169, N-(1-methyl-3-piperidyl)-4-morpholino-2-(4-phenylpyrazol-1-yl)furo[3,2-d]pyrimidine-6-carboxamide], the figure is 7.17; as for `Cc1cc(Nc2nc(N3CCOCC3)c3occc3n2)[nH]n1` [Compound 9, N-(5-methyl-1H-pyrazol-3-yl)-4-morpholino-furo[3,2-d]pyrimidin-2-amine, hydrogen chloride], less than 5.00. Consider `Cc1cccc(-c2cc(Nc3nc(N4CCOCC4)c4oc(-c5cccnc5)cc4n3)[nH]n2)c1` [Compound 30, 4-morpholino-N-[5-(m-tolyl)-1H-pyrazol-3-yl]-6-(3-pyridyl)furo[3,2-d]pyrimidin-2-amine, hydrogen chloride], for which the pIC50 was 9.30.

Turning to `Cc1cccc(-c2cc(Nc3nc(N4CCOCC4)c4oc(C5CCCN(C)C5)cc4n3)[nH]n2)c1` (centres unmarked) [Compound 36], the negative-log IC50 (pIC50) was 7.43.

For the compound `CNC(=O)c1cc2nc(-n3ccc(-c4cccc(C)c4)n3)nc(N3CCOCC3)c2o1` [Compound 92, N-methyl-4-morpholino-2-(3-(m-tolyl)-1H-pyrazol-1-yl)furo[3,2-d]pyrimidine-6-carboxamide], the pIC50 was 7.04. As to `c1ccc(-c2cnn(-c3nc(N4CCOCC4)c4oc(-c5ccccn5)cc4n3)c2)cc1` [Compound 161, 4-morpholino-2-(4-phenylpyrazol-1-yl)-6-(2-pyridyl)furo[3,2-d]pyrimidine], the pIC50 is 7.39. To `CN1CCC(c2cc3nc(Nc4cc(-c5ccccc5)n[nH]4)nc(N4CCOCC4)c3o2)C1` (centres unmarked) [Compound 38] belongs 6.88; to `Cn1ccc(-c2cc3nc(-n4ccc(-c5ccccc5)n4)nc(N4CCOCC4)c3o2)n1` [Compound 191, 6-(1-methylpyrazol-3-yl)-4-morpholino-2-(3-phenylpyrazol-1-yl)furo[3,2-d]pyrimidine], 7.28. For `CNC(=O)c1cc2nc(Nc3cc(C(F)(F)F)n[nH]3)nc(N3CCOCC3)c2o1` [Compound 81, N-methyl-4-morpholino-2-((5-(trifluoromethyl)-1H-pyrazol-3-yl)amino)furo[3,2-d]pyrimidine-6-carboxamide, hydrogen chloride], the pIC50 is no more than 5.00. To `c1ccc(-c2cnn(-c3nc(N4CCOCC4)c4oc(-c5ccncc5)cc4n3)c2)cc1` [Compound 41, 4-morpholino-2-(4-phenylpyrazol-1-yl)-6-(4-pyridyl)furo[3,2-d]pyrimidine, hydrogen chloride] belongs 7.47; to `CN(C)C(=O)c1cc2nc(Nc3cc(-c4ccccc4)[nH]n3)nc(N3CCOCC3)c2o1` [Compound 137, N,N-dimethyl-4-morpholino-2-((5-phenyl-1H-pyrazol-3-yl)amino)furo[3,2-d]pyrimidine-6-carboxamide], 7.02; to `CN(C(=O)c1cc2nc(Nc3cc(-c4ccccc4)[nH]n3)nc(N3CCOCC3)c2o1)C1CC1` [Compound 60, N-cyclopropyl-N-methyl-4-morpholino-2-[(5-phenyl-1H-pyrazol-3-yl)amino]furo[3,2-d]pyrimidine-6-carboxamide, hydrogen chloride], 7.15. As for `COc1cccc(-c2ccn(-c3nc(N4CCOCC4)c4oc(C(=O)NC5CCOCC5)cc4n3)n2)c1` [Compound 221, 2-[3-(3-methoxyphenyl)pyrazol-1-yl]-4-morpholino-N-tetrahydropyran-4-yl-furo[3,2-d]pyrimidine-6-carboxamide], the figure is 8.47; as for `CN(CC1CC1)C(=O)c1cc2nc(-n3cc(-c4ccccc4)cn3)nc(N3CCOCC3)c2o1` [Compound 66, N-(cyclopropylmethyl)-N-methyl-4-morpholino-2-(4-phenyl-1H-pyrazol-1-yl)furo[3,2-d]pyrimidine-6-carboxamide], 6.21. With `Cc1cccc(-c2cnn(-c3nc(N4CCOCC4)c4oc(-c5ccn(C)n5)cc4n3)c2)c1` [Compound 201, 6-(1-methylpyrazol-3-yl)-4-morpholino-2-[4-(m-tolyl)pyrazol-1-yl]furo[3,2-d]pyrimidine], the pIC50 is 9.30. With `Cc1c(-c2cccnc2)oc2c(N3CCOCC3)nc(-n3ccc(-c4ccccc4)n3)nc12` [Compound 180, 7-methyl-4-morpholino-2-(3-phenylpyrazol-1-yl)-6-(3-pyridyl)furo[3,2-d]pyrimidine], the pIC50 was 7.25. For the compound `c1cncc(-c2cc(Nc3nc(N4CCOCC4)c4oc(-c5ccncc5)cc4n3)[nH]n2)c1` [Compound 18, 4-morpholino-6-(4-pyridyl)-N-[5-(3-pyridyl)-1H-pyrazol-3-yl]furo[3,2-d]pyrimidin-2-amine, hydrogen chloride], the pIC50 is 6.84.

Consider `Cc1cc(-c2cc3nc(-n4cc(-c5ccccc5)cn4)nc(N4CCOCC4)c3o2)[nH]n1` [Compound 163, 6-(3-methyl-1H-pyrazol-5-yl)-4-morpholino-2-(4-phenylpyrazol-1-yl)furo[3,2-d]pyrimidine], for which the pIC50 was 7.63. As for `c1ccc(-c2cc(Nc3nc(N4CCOCC4)c4oc(CN5CCOCC5)cc4n3)[nH]n2)cc1` [Compound 12, 4-morpholino-6-(morpholinomethyl)-N-(3-phenyl-1H-pyrazol-5-yl)furo[3,2-d]pyrimidin-2-amine hydrochloride], the figure is 6.94. Turning to `Cc1cccc(-c2cc(Nc3nc(N4CCOCC4)c4oc(C5CCN(C)C5)cc4n3)[nH]n2)c1` (centres unmarked) [Compound 39, 6-(1-methylpyrrolidin-3-yl)-4-morpholino-N-(3-(m-tolyl)-1H-pyrazol-5-yl)furo[3,2-d]pyrimidin-2-amine hydrochloride], the pIC50 is 5.59. For the compound `c1ccc(-c2cc(Nc3nc(N4CCOCC4)c4oc(-c5ccccn5)cc4n3)[nH]n2)cc1` [Compound 26, 4-morpholino-N-(5-phenyl-1H-pyrazol-3-yl)-6-(2-pyridyl)furo[3,2-d]pyrimidin-2-amine, hydrogen chloride], the negative-log IC50 (pIC50) was 10.00.

On to `CC(C)c1cc(Nc2nc(N3CCOCC3)c3oc(-c4ccncc4)cc3n2)[nH]n1` [Compound 77, N-(5-isopropyl-1H-pyrazol-3-yl)-4-morpholino-6-(pyridin-4-yl)furo[3,2-d]pyrimidin-2-amine, hydrogen chloride], for which the pIC50 was 6.76.

As to `c1ccc2c(Nc3nc(N4CCOCC4)c4oc(-c5ccncc5)cc4n3)n[nH]c2c1` [Compound 50, N-(1H-indazol-3-yl)-4-morpholino-6-(pyridin-4-yl)furo[3,2-d]pyrimidin-2-amine hydrochloride], the pIC50 is 6.08.

The values are drawn from patent publication US20230146395A1, “Substituted Pyrimidines and Uses Thereof” (Verge Analytics, Inc., priority 2020, published 2023).
